Entries after “also recorded” stand apart in the source; their conditions may differ.
Tests used:
[1] = tested on: platelet aggregation induced by ADP; test: ADP-induced maximum platelet aggregation rate after gastric administration (Example 1); type: in vivo, Wistar rats; details: 40 mg/Kg gastric once per day 7 days; blood 1 h after last dose; ADP 20 μM
Protocol: Wistar rats, after 1 h of administration on the 7th day, were anesthetized by intraperitoneal injection of pentobarbital sodium (40-60 mg/kg), blood samples were collected from hearts, anti-coagulated with 3.8% sodium citrate (volume ratio: 1:9). Centrifugation was performed under 800 rpm and room temperature for 10 min to separate platelet-rich plasmas (PRP), then centrifugation was performed again under 3000 rpm and room temperature for 20 min to separate platelet-poor plasmas (PPP). Counting was performed by using F-820 blood cell counter, and PRP was adjusted with PPP to have a concentration of 3.0×10^11/L.
(§1) Chronolog platelet aggregation analyzer test: Platelet suspension was adjusted with plasma to have a concentration of 3.0×10^11/L, the platelet to aggregation analyzer was turned on and pre-warmed for 30 min, and PPP was used as a blank control to adjust transmittance to be 100%. 450 μL of platelet suspension were taken, stirred with a stir bar and pre-warmed at 37° C. for 3 min, and separately added with inducing agent (50 μL) ADP agent (final concentration: 20 μM), then 5 min diagram was recorded, and aggregation rates at 1 min, 3 min and 5 min and the maximum aggregation rates were read.
Blood samples were collected from heart of anaesthetized mice after 1 h of the last gastric administration of timosaponins, and analyzed to determine the rates of platelet aggregation induced by ADP (20 μM) after administration.

[2] = tested on: artery-vein bypass thrombosis; test: Artery-vein bypass thrombosis (Example 1); type: in vivo, Wistar rats; details: 40 mg/Kg gastric once per day 7 days; bypass 15 min
Protocol: The pipe was taken down after 15 min, thrombus was taken out, rolled on a wet filter paper, residual blood was removed, placed on a parchment paper and weighed to obtained its wet weight. Then, it was placed in a drying oven and dried at 60° C. for 1 h to reach a constant weight, cooled and weighed to obtain the dry weight of thrombus.

caudal vein bleeding = test: Caudal vein bleeding time in mice; details: 40 mg/Kg gastric twice per day 5 days, test 1 h after dose on 6th day
Protocol: Mice were randomly divided into 7 groups: control group, aspirin group (ASP,40 mg/Kg), BII group (40 mg/Kg), AIII group (40 mg/Kg), 1:1 group (weight ratio of AIII to BII, 40 mg/Kg), 1:3 group (weight ratio of AIII to BII, 40 mg/Kg), 3:1 group (weight ratio of AIII to BII, 40 mg/Kg). Continuous gastric administration was performed for 5 days, twice per day, and the experiments were conducted after 1 h of the administration on the 6th day. The control group was administered with physiological saline of the same volume. All drug ratios were AIII to BII.
Mice were anesthetized with pentobarbital sodium (40-60 mg/kg), placed on a worm and comfortable pad, a tail tip was cut at a place where the tail of mice had to a diameter of 2.25-2.5 mm, and immediately placed in PBS (37° C.), timing started. Hemostatic time and re-bleeding time within 10 min were observed, and the bleeding volume of mice was presumed by hemoglobin volume.

platelet aggregation = test: In vitro activity screening: platelet aggregation; type: cell-based
[3] = tested on: human platelet aggregation; details: single compounds; cited from earlier work
blood coagulation [4] = details: single compounds; cited from earlier work
[5] = tested on: thrombotic agent consisting of collagen and adrenalin; test: Lethal time in mice by caudal vein injection of collagen; type: in vivo, Kunming mice; details: 40 mg/Kg gastric twice per day 5 days, test 1 h after dose on 6th day; observed within 10 min
Protocol: Mice were fixed on mice-fixed frame, and thrombotic agent (100 μg/mouse) consisting of collagen (0.5 mg/kg) and adrenalin (60 ug/kg) were administered by caudal vein injection. The symptoms, symptom occurrence time, and the lethal time in mice were observed within 10 min, and mice […] after 10 min were deemed as survival.

[6] = tested on: jugular artery-vein bypass thrombosis; test: Artery-vein bypass thrombosis in rats (Example 3); type: in vivo, Wistar rats; details: aspirin 40 mg/kg gastric once per day 7 days; bypass 20 min
Protocol: Then, it was placed in a drying oven and dried at 60° C. for 1 h to reach a constant weight, cooled and weighed to obtain the dry weight of thrombus. […] The aspirin positive control group gave thrombus dry and wet weights slightly higher than those of the large dose group, and had significant difference from the control group.

[7] = tested on: ADP-induced platelet aggregation; test: ADP-induced platelet aggregation rate in rats after gastric administration (Example 3); type: in vivo, Wistar rats; details: aspirin 40 mg/kg gastric once per day 7 days; ADP 20 μM; in %
Protocol: Wistar rats were randomly divided into 5 groups, i.e., blank control group, aspirin 40 mg/kg group, the present pharmaceutical composition 10 mg/kg, 20 mg/kg and 40 mg/kg groups, the animals of the groups were subjected to continuous gastric administration for 7 days, once per day, dose volume was 10 mL/kg, operation was conducted after 1 h of administration on the 7th day, and the blank control was administered with distilled water of the same volume. […]
as §1, with “platelet” for “platelet to”, “on,” for “on and pre-warmed for 30 min,”
The administration method of the present pharmaceutical composition and the grouping method were identical to that of the third part, blood samples were collected from hearts of rats on the 7th day after administration, and the ADP-induced platelet aggregation and bleeding/coagulation time (PT, TT and APTT) of the same batch were determined. […]

blood coagulation [8] = test: Blood coagulation parameters APTT, PT and TT in rats; type: in vivo, Wistar rats; details: aspirin group (40 mg/kg) gastric once per day 7 days
Protocol: Wistar rats were randomly divided into 5 groups, i.e., blank control group, aspirin 40 mg/kg group, the present pharmaceutical composition 10 mg/kg, 20 mg/kg and 40 mg/kg groups, the animals of the groups were subjected to continuous gastric administration for 7 days, once per day, dose volume was 10 mL/kg, operation was conducted after 1 h of administration on the 7th day, and the blank control was administered with distilled water of the same volume.
Blood samples were collected, plasmas were separated, and the operation was conducted according to the specification of kits.
The administration method of the present pharmaceutical composition and the grouping method were identical to that of the third part, blood samples were collected from hearts of rats on the 7th day after administration, and the ADP-induced platelet aggregation and bleeding/coagulation time (PT, TT and APTT) of the same batch were determined. […] The aspirin group gave a platelet aggregation rate lower than that of the control group, to but had no significant difference.

blood vessels = test: In vitro activity screening: expanding blood vessels
[9] = tested on: rats with cerebral ischemia; details: rat, in vivo; cited from earlier work

Compound | Maximum aggregation rate (%) [1] [%] | Thrombus dry weight [2] [mg] | Thrombus wet weight [2] [mg] | Bleeding volume (caudal vein bleeding) [µL] | Hemostatic time (s) (caudal vein bleeding; cut-off 600 s) | inhibition of platelet aggregation in vitro (platelet aggregation) | activity against human platelet aggregation [3] | extending blood coagulation time (blood coagulation [4]) | other results
C[C@H]1CC[C@@]2(OC1)O[C@H]1C[C@H]3[C@@H]4CC[C@@H]5C[C@@H](O[C@@H]6O[C@H](CO)[C@H](O)[C@H](O)[C@H]6O[C@@H]6O[C@H](CO)[C@@H](O)[C@H](O)[C@H]6O)CC[C@]5(C)[C@H]4CC[C@]3(C)[C@H]1[C@@H]2C [AIII, timosaponin AIII] | 39.8 ± 5.0 | 24.4 ± 6.30 | 64.29 ± 22.58 | 21.3 ± 29.6 | 396.6 ± 208.9^★★★ s | significantly inhibit; also recorded: significant inhibitive effect | significant activity | significant activity | 
CC(=O)Oc1ccccc1C(=O)O [ASP, Aspirin] | 40.8 ± 7.6 | 25.5 ± 7.37 | 79.74 ± 18.95 | 13.5 ± 13.8 | 277.4 ± 188.5^★★★ s |  |  |  | Hemostatic time (caudal vein bleeding; cut-off 600 s, listed as aspirin): 277.4 ± 188.5 s; Lethal time (s) [5]: 244.6 ± 195.3 ^★ s; Thrombus weight (mg) Dry weight [6]: 26.7 ± 6.4 mg; Thrombus weight (mg) Wet weight [6]: 79.7 ± 19.0 mg; PLT maximum aggregation rate [7]: 49.1 ± 4.8; Coagulation time (s) APTT (blood coagulation [8]): 17.50 ± 2.37 s; Coagulation time (s) PT (blood coagulation [8]): 16.49 ± 2.08 s; Coagulation time (s) TT (blood coagulation [8]): 28.98 ± 0.97 s
C[C@@H](CC[C@@]1(O)O[C@H]2C[C@H]3[C@@H]4CC[C@@H]5C[C@@H](O[C@@H]6O[C@H](CO)[C@H](O)[C@H](O)[C@H]6O[C@@H]6O[C@H](CO)[C@@H](O)[C@H](O)[C@H]6O)CC[C@]5(C)[C@H]4CC[C@]3(C)[C@H]2[C@@H]1C)CO[C@@H]1O[C@H](CO)[C@@H](O)[C@H](O)[C@H]1O [BII, timosaponin BII] | 50.8 ± 6.7 | 28.6 ± 7.82 | 90.39 ± 29.59 | 10.7 ± 9.8 | 325.1 ± 200.6^★★★ s | could not inhibit | significant activity | significant activity | expanding blood vessels (blood vessels): could expand blood vessels; also recorded: significant effect of expanding blood vessels; blood rheology [9]: significantly improve; cerebral edema [9]: alleviate; cerebral infarction area [9]: reduce; nervous symptoms of rats with cerebral ischemia [9]: significantly improve
CC1=C(CC[C@H](C)CO[C@@H]2O[C@H](CO)[C@@H](O)[C@H](O)[C@H]2O)O[C@H]2C[C@H]3[C@@H]4CC[C@@H]5C[C@@H](O[C@@H]6O[C@H](CO)[C@H](O)[C@H](O)[C@H]6O[C@@H]6O[C@H](CO)[C@@H](O)[C@H](O)[C@H]6O)CC[C@]5(C)[C@H]4CC[C@]3(C)[C@@H]12 [BIII] |  |  |  |  |  |  | significant activity | significant activity | 
CO[C@]1(CC[C@H](C)CO[C@@H]2O[C@H](CO)[C@@H](O)[C@H](O)[C@H]2O)O[C@H]2C[C@H]3[C@@H]4CC[C@@H]5C[C@@H](O[C@@H]6O[C@H](CO)[C@H](O)[C@H](O)[C@H]6O[C@@H]6O[C@H](CO)[C@@H](O)[C@H](O)[C@H]6O)CC[C@]5(C)[C@H]4CC[C@]3(C)[C@H]2[C@@H]1C [BI] |  |  |  |  |  |  | significant activity | significant activity | 
timosaponins Ia |  |  |  |  |  |  | significant activity | significant activity | 

Reference: patent publication US20120316122A1, “PHARMACEUTICAL COMPOSITIONS FOR COMBATING THROMBOTIC DISEASES AND THEIR PREPARATION AND USES” (INSTITUTE OF RADIATION MEDICINE, ACADEMY OF MILITARY …, priority 2009, published 2012)
